Test results published in patent publication US12102659B2, “Methods for the prevention or treatment of heart failure” (Cornell University, priority 2009, dated 2024).
Square brackets hold non-standard residues; d marks the D form. Ends that are not written are not given here.

Legend:
[1] = tested on: neonatal cardiomyocytes; experiment: Mitosox flow cytometry of mitochondrial ROS in neonatal cardiomyocytes stimulated with Ang II; type: cell-based, mouse; conditions: for effect on Ang II-induced Mitosox fluorescence / mitochondrial ROS: SS-31 1 nM or NAC 0.5 mM together with Ang II 1 μM for 3 hours
Method: Neonatal mouse cardiomyocyte culture and flow cytometry. Ventricles from mouse neonates younger than 72 hours were dissected, minced, and enzymatically digested with Blendzyme 4 (45 μg/ml, Roche). After enzymatic digestion, cardiomyocytes were enriched using differential pre-plating for 2 hours, then seeded on fibronectin-coated culture dishes for 24 hours in DMEM (Gibco), with 20% Fetal Bovine Serum (Sigma) and 25 μM Arabinosylcytosine (Sigma). Cardiomyocytes were stimulated with Angiotensin II (1 μM) for 3 hours in serum-free DMEM containing 0.5% insulin transferrin-selenium (Sigma), 2 mM glutamine, and 1 mg/ml of BSA. Cardiomyocytes were simultaneously treated with either of the following: SS-31 (1 nM), N-acetyl cysteine (NAC: 0.5 mM), or PBS control. To measure mitochondrial superoxide concentration, Mitosox (5 μM) was incubated for 30 min at 37° C. to load cardiomyocytes, followed by 2 washes, with Hanks Balanced Salt Solution. Samples were analyzed using excitation/emission of 488/625 nm by flow cytometry. Flow data was analyzed using FCS Express (De Novo Software, Los Angeles, CA), and presented as histogram distributions of Mitosox fluorescence intensity.

[2] = tested on: NADPH oxidase; experiment: NADPH oxidase activity in ventricular protein extract after 4 weeks of Ang II; type: in vivo, mouse; conditions: 4 weeks Ang II (vs. saline) or Ang II + SS-31 (vs. Ang II)
Method: (§1) Mouse experiments, drug delivery, echocardiography and blood pressure measurement. All animal experiments were approved by the University of Washington Institutional Animal Care and Use Committee. C57BL6 mice were housed in a barrier specific pathogen-free facility. Six to ten mice were included in each experimental group (Saline, Ang II, Ang II+SS-31, WT, Gαq, Gαq+SS-31). A pressor dose of Ang II (1.1 mg/kg/d) was continuously administered for 4 weeks using subcutaneous Alzet 1004 osmotic minipumps, with or without addition of SS-31 (3 mg/kg/d). Echocardiography was performed at baseline and after 4 weeks of pump implantation using a Siemens Acuson CV-70 equipped with a 13 MHz probe. Under 0.5% isoflurane to reduce agitation, standard M-mode, conventional and Tissue Doppler images were taken, and functional calculations were performed according to American Society of Echocardiography guidelines. MP1 was calculated as the ratio of the sum of isovolemic contraction and relaxation time to LV ejection time. […]
NADPH Oxidase activity. […] In brief, […] of ventricular protein extract was incubated with dihydroethidium (DHE, 10 μM), sperm DNA (1.25 μg/ml), and NADPH (50 μM) in PBS/DTPA (containing 100 μM DTPA), The assay was incubated at 37° C. in the dark for 30 min and the fluorescence was detected using excitation/emission of 490/580 nm.

[3] = tested on: C57BL6 mice; experiment: Blood pressure by intravascular telemetry after pressor dose of Ang II; type: in vivo, mouse
Method: (§2) Mouse experiments, drug delivery, echocardiography and blood pressure measurement. All animal experiments were approved by the University of Washington Institutional Animal Care and Use Committee. C57BL6 mice were housed in a barrier specific pathogen-free facility. Six to ten mice were included in each experimental group (Saline, Ang II, Ang II+SS-31, WT, Gαq, Gαq+SS-31). A pressor dose of Ang II (1.1 mg/kg/d) was continuously administered for 4 weeks using subcutaneous Alzet 1004 osmotic minipumps, with or without addition of SS-31 (3 mg/kg/d). Echocardiography was performed at baseline and after 4 weeks of pump implantation using a Siemens Acuson CV-70 equipped with a 13 MHz probe. Under 0.5% isoflurane to reduce agitation, standard M-mode, conventional and Tissue Doppler images were taken, and functional calculations were performed according to American Society of Echocardiography guidelines. MP1 was calculated as the ratio of the sum of isovolemic contraction and relaxation time to LV ejection time. An increase in MPI is an indication that a greater fraction of systole is spent to cope with the pressure changes during the isovolemic phases. As a reference for SS-31 peptide effect in Ang II treated mice, a genetic mouse model of Rosa-26 inducible-mCAT was included, in which mitochondrial catalase was overexpressed two weeks before Ang II treatment.
Blood pressure was measured in a separate group of mice by telemetry using an intravascular catheter PA-C10 (DSI, MN), in which measurement was performed every three hours starting from 2 days before pump placement until 2 days after Ang pump placement.

[4] = tested on: ANP, Collagen 1a2, PGC1-α, TFAM, NRF-1, NRF-2; experiment: Quantitative PCR of cardiac gene expression after 4 weeks of Ang II; type: in vivo, mouse; conditions: for expression of PGC-1α and downstream target genes TFAM, NRF-1 and NRF-2: 4 weeks Ang II (vs. saline) or Ang II + SS-31 (vs. Ang II)
Method: as §2
(§3) Quantitative PCR. Gene expression was quantified by quantitative real time PCR using an Applied Biosystems 7900 themocycler with Taqman Gene Expression Assays on Demand, which included: PGC1-α (Mm00731216), TFAM (Mm00447485), NRF-1 (Mm00447996), NRF-2 (Mm00487471), Collagen 1a2 (Mm00483937), and ANP (Mm01255747). Expression assays were normalized to 18S RNA.

[5] = tested on: C57BL6 mice; experiment: Ang II-induced cardiomyopathy: echocardiography and heart weight after 4 weeks; type: in vivo, mouse; conditions: for Ea/Aa / LVMI: 4 weeks Ang II 1.1 mg/kg/d with or without SS-31 3 mg/kg/d; for heart weight (normalized to tibia length): 4 weeks Ang II with or without SS-31, saline 5.3±0.18; for change in LV end diastolic diameter (LVEDD) / change in fractional shortening (FS, systolic function): in the presence or absence of SS-31
Method: as §2

[6] = tested on: cleaved caspase-3, phospho-p38 MAP kinase, p38; experiment: Western immunoblots of cardiac protein extracts after 4 weeks of Ang II; type: in vivo, mouse; conditions: for phosphorylation of p38 MAPK: 4 weeks Ang II (vs. saline) or Ang II + SS-31 (vs. Ang II)
Method: as §2
Western Immunoblots. Cardiac protein extracts were prepared by homogenization in lysis buffer containing protease and phosphatase inhibitors on ice (1.5 mM KCl, 50 mM Tris HCl, 0.125% Sodium deoxycholate, 0.375% Triton X 100, 0.15% NP40, 3 mM EDTA). The samples were sonicated and centrifuged at 10,000 g for 15 min in 4° C. The supernatant was collected and the concentration was determined using a BCA assay (Pierce Thermo Scientific, Rockford, IL). Total protein (25 μg) was separated on NuPAGE 4-12% Bis-Tris gel (Invitrogen) and transferred to 0.45 μm PVDF membrane (Millipore), and then blocked in 5% non-fat dry milk in Tris-buffer solution with 0.1% Tween-20 for 1 hour. Primary antibodies were incubated overnight, and secondary antibodies were incubated for 1 hour. The primary antibodies included: rabbit monoclonal anti-cleaved caspase-3 (Cell Signaling), mouse monoclonal anti-GAPDH (Millipore), rabbit polyclonal phospho-p38 MAP kinase (Cell Signaling), and mouse monoclonal anti-p38 (Santa Cruz Biotechnology). The enhanced chemiluminescence method (Thermo Scientific) was used for detection. Image Quant ver.2.0 was used to quantified the relative band density as a ratio to GAPDH (internal control). All samples were normalized to the same cardiac protein sample.

[7] = tested on: C57BL6 mice; experiment: Quantitative pathology of ventricular fibrosis (Masson Trichrome) after 4 weeks of Ang II; type: in vivo, mouse
Method: as §1, with “time. An increase in MPI is an indication that a greater fraction of systole is spent to cope with the pressure changes during the isovolemic phases.” for “time.”
Quantitative Pathology. […] Quantitative analysis of fibrosis was performed by measuring the percentage of blue-staining fibrotic tissue relative to the total cross-sectional area of the ventricles.

[8] = tested on: mitochondrial protein carbonyl groups; experiment: Cardiac mitochondrial protein carbonyl ELISA after 4 weeks of Ang II; type: in vivo, mouse; conditions: 4 weeks Ang II (vs. saline) or Ang II + SS-31 (vs. Ang II)
Method: as §2, with “treatment. […]” for “treatment.”

[9] = target: mu-opioid receptor (Homo sapiens, UniProt P35372); experiment: mu-opioid receptor agonist activity (stated, no method); type: biochemical; conditions: stated in the description, no test described
[10] = tested on: several mammalian cell types; conditions: energy-independent manner; cited from earlier work
[11] = tested on: Gαq overexpressing mice; experiment: Gαq overexpression-induced heart failure: echocardiography, organ weights, fibrosis, qPCR, protein carbonyls; type: in vivo, mouse
Method: as §2
Quantitative Pathology. Ventricular tissues were cut into transverse slices, and subsequently embedded with paraffin, sectioned, and subjected to Masson Trichrome staining. Quantitative analysis of fibrosis was performed by measuring the percentage of blue-staining fibrotic tissue relative to the total cross-sectional area of the ventricles.
Measurement of mitochondrial protein carbonyl groups. For mitochondrial protein extraction, ventricular tissues were homogenized in mitochondrial isolation buffer (1 mM EGTA, 10 mM HEPES, 250 mM sucrose, 10 mM Tris-HCl, pH 7.4). The lysates were centrifuged for 7 min at 800 g in 4° C. The supernatants were then centrifuged for 30 min at 4000 g in 4° C. The crude mitochondria pellets were resuspended in small volume of mitochondrial isolation buffer, sonicated on ice to disrupt the membrane, and treated with 1% streptomycin sulfate to precipitate mitochondrial nucleic acids. The OxiSelect™ Protein Carbonyl ELISA Kit (Cell Biolabs) was used to analyze 1 μg of protein sample per assay. The ELISA was performed according to the instruction manual, with slight modification. Briefly, protein samples were reacted with dinitrophenylhydrazine (DNPH) and probed with anti-DNPH antibody, followed by HRP conjugated secondary antibody. The anti-DNPH antibody and HRP conjugated secondary antibody concentrations were 1:2500 and 1:4000, respectively.
as §3

[12] = Ang II 1.1 mg/kg/d subcutaneous pump, FIG. 2B
[13] = SS-31 3 mg/kg/d with Ang II, 4 weeks
[14] = Gαq mice, SS-31 3 mg/kg/d for 4 weeks
[15] = Ang+SS-31 (3 mg/kg/d) vs. Ang, 4 weeks

mu-opioid receptor, sequence (P35372 whole entry, species assumed): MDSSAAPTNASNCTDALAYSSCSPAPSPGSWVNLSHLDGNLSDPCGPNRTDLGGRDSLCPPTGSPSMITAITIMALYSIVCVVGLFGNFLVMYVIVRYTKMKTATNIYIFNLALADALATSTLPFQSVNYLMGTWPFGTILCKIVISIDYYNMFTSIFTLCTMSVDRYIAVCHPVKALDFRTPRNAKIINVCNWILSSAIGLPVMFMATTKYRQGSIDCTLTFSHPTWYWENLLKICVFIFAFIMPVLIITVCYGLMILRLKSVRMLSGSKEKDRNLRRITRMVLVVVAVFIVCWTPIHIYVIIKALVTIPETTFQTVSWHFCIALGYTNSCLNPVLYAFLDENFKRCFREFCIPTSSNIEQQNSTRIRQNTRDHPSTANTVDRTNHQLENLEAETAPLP

CC(=O)N[C@@H](CS)C(=O)O [N-acetyl cysteine]
effect on Ang II-induced Mitosox fluorescence / mitochondrial ROS [1]: did not show any effect

Angiotensin II [Ang II]
cardiac NADPH oxidase activity [2]: significantly increased
increase in systolic and diastolic blood pressure above baseline ([3]; Ang II 1.1 mg/kg/d): 25-28 mm Hg
increase in diastolic pressure [3, 12]: 24.8 mm Hg
increase in systolic blood pressure [3, 12]: 27.2 mm Hg
diastolic blood pressure after Ang II ([3]; Ang II 1.1 mg/kg/d, baseline 94.5±3.5): 119.3±4.0 mm Hg
expression of PGC-1α and downstream target genes TFAM, NRF-1 and NRF-2 [4]: induced the expression
increase in ANP gene expression ([4]; 4 weeks of Ang II): ~15 fold
increase in Coll1a2 gene expression ([4]; 4 weeks of Ang II): ~2.5 fold
Ea/Aa [5]: 0.723±0.15
LVMI [5]: 6.32 ± 0.39 mg/g
heart weight (normalized to tibia length) [5]: 7.69±0.20 mg/mm
increase in heart weights above saline treated control hearts ([5]; 4 weeks of Ang II): 45%
decline in Ea/Aa (diastolic function) ([5]; 4 weeks of Ang II 1.1 mg/kg/d): ~35%
increase in left ventricular mass index (LVMI) compared with baseline ([5]; 4 weeks of Ang II 1.1 mg/kg/d): approximately 2 fold
change in LV end diastolic diameter (LVEDD) ([5]; 4 weeks of Ang II): no change
change in fractional shortening (FS, systolic function) ([5]; 4 weeks of Ang II): no change
phosphorylation of p38 MAPK [6]: increased
increase in cleaved (activated) caspase-3 in left ventricular tissue ([6]; 4 weeks of Ang II): approximately 3 fold
protein levels of p38 MAP kinase ([6]; 4 weeks of Ang II, FIG. 6C): increased
increase in ventricular fibrosis (blue staining on trichrome) ([7]; 4 weeks of Ang II): greater than 3 fold
ventricular mitochondrial protein carbonyl content [8]: significantly increased
increase of Mitosox fluorescence (indicator of mitochondrial superoxide) ([1]; Ang II 1 μM, 3 hours, neonatal cardiomyocytes): approximately 2 fold

F[dR]FK-NH2 [SS-20]
mu-opioid receptor agonist activity [9]: does not have mu-opioid receptor agonist activity

2′,6′-Dmt-D-Arg-Phe-Lys-NH2 [SS-02]
penetration of the plasma membrane [10]: readily penetrates the plasma membrane

D-Arg-2′,6′-Dmt-Lys-Phe-NH2 [SS-31]
cardiac NADPH oxidase activity [2]: not changed
effect on blood pressure ([3]; SS-31 3 mg/kg/d simultaneously with Ang II 1.1 mg/kg/d): did not show any effect
expression of PGC-1α and downstream target genes TFAM, NRF-1 and NRF-2 [4]: fully prevent the upregulation
effect on Ang II-induced ANP gene expression [4, 13]: almost completely protected
effect on Ang II-induced Coll1a2 gene expression [4, 13]: almost fully attenuated
cardiac enlargement (normalized heart weight) ([11]; Gαq mice at 16 weeks of age, SS-31 3 mg/kg/d for 4 weeks): substantially reduced
increase in lung weights (lung congestion) ([11]; Gαq mice at 16 weeks of age, SS-31 3 mg/kg/d for 4 weeks, borderline significance p=0.09): slightly attenuated
cardiac expression of Coll1a2 gene ([11]; Gαq mice, 4 weeks of SS-31 treatment): not significantly altered
Gαq overexpression-induced heart failure (phenotype overall) [11, 14]: partially rescued
cardiac mitochondrial protein carbonyls [11, 14]: significant reduction
ventricular fibrosis [11, 14]: not changed
myocardial performance (MPI) ([11]; Gαq mice, SS-31 3 mg/kg/d from 12 to 16 weeks of age): improved
systolic function (FS) ([11]; Gαq mice, SS-31 3 mg/kg/d from 12 to 16 weeks of age, vs. untreated Gαq): significantly ameliorated
Ea/Aa (diastolic function) ([11]; Gαq mice, SS-31 3 mg/kg/d from 12 to 16 weeks of age, borderline significance p=0.06): better preserved
LV chamber enlargement ([11]; Gαq mice, SS-31 3 mg/kg/d from 12 to 16 weeks of age, p=0.08): slightly reduced
Ea/Aa [5]: 1.17±0.11
LVMI [5]: 4.21 ± 0.17 mg/g
heart weight (normalized to tibia length) [5]: 6.05±0.135 mg/mm
change in LV end diastolic diameter (LVEDD) ([5]; 4 weeks of Ang II): not significantly changed
change in fractional shortening (FS, systolic function) ([5]; 4 weeks of Ang II): not significantly changed
better preservation of Ea/Aa [5, 15]: 38%
reduction of LVMI [5, 15]: 33%
phosphorylation of p38 MAPK [6]: significantly and nearly fully attenuated
effect on activation of caspase-3 caused by Ang II [6, 13]: completely prevented
mu-opioid receptor agonist activity [9]: does not have mu-opioid receptor agonist activity
effect on Ang II-induced ventricular fibrosis [7, 13]: fully attenuated
ventricular mitochondrial protein carbonyl content [8]: significantly reduced
effect on Ang II-induced Mitosox fluorescence / mitochondrial ROS [1]: reduced Ang II-induced mitosox fluorescence to the level similar to that of saline treated cardiomyocytes

Tyr-D-Arg-Phe-Lys-NH2 [SS-01]
mu-opioid receptor agonist activity [9]: has mu-opioid receptor agonist activity
